# From patent publication US10716783B2, “Prolylhydroxylase/ATF4 inhibitors and methods of use for treating neural cell injury or death and conditions resulting therefrom” (CORNELL UNIVERSITY, priority 2013, dated 2020)
# Entries after “also recorded” stand apart in the source; their conditions may differ.
# How the values were obtained:
# [1] = test system: ATF4; experiment: ATF4 dependent gene expression under oxidative stress in neurons (microarray, qPCR, promoter occupancy); format: cell-based
# Source text: FIGS. 5A-5G. […] Because adaptoquin is a HIF PHD inhibitor that appears to work independent of HIF transcription factors, and because hemin induced death involves oxidative stress, the effect of adaptoquin on oxidative glutamate toxicity was examined. This form of toxicity is observed in primary cortical neurons from E17 rat embryos (2 DIV) and involves glutamate mediated inhibition of the amino acid cystine via its plasma membrane transporter. […] Accordingly, the optimal concentration of adaptoquin in protecting neurons was first determined and found to be about 1 micromolar. […] To determine the mechanism of adaptoquin, transcriptomic experiments were performed using non-protective and protective concentrations of drug harvesting RNA just prior to the time the cell's becoming insensitive to adaptoquin (16 hrs), as provided in FIG. 5C.
# FIGS. 6A-6I. […] Expression of ATF4 was forced into primary neurons, which induces death of these neurons by MTT assay (FIG. 6D) or LIVE/DEAD staining, Green is live, Red is dead (FIG. 6E).
# To probe the mechanism of adaptoquin-induced neuroprotection, the study moved its attention to a well established model of oxidative stress in neurons induced by glutamate. Like hemin induced toxicity, oxidative glutamate toxicity is abrogated by forced expression of GPX4 (Alim et al., unpublished observations). However, oxidative glutamate toxicity has a much longer window before cells are committed to die (eighteen hours), facilitating analysis of primary events involved in cell death and protection. A detailed dose response and therapeutic window study was performed with adaptoquin in mouse cortical neurons exposed to glutamate or the glutamate analog, homocysteate. […] To probe the mechanism of this potent, delayed protection, a microarray transcriptomics study was performed using RNA from neuronal cultures that had been exposed to glutamate (or HCA) for 16 hours with vehicle, as well as non-protective (100 nM) and protective doses of adaptoquin (1 μM). […]
# [2] = test system: intracerebral hemorrhage (collagenase into the striatum); experiment: Collagenase-induced ICH in mice; format: in vivo; conditions: for Corner task (spatial neglect): 30 mg/kg i.p. 2 h post collagenase then daily for seven days; for Tape removal task (sensory neglect): 1 and 3 days post ICH; for Neuronal degeneration (Fluoro-jade staining), striatum hematoma and perihematomal area: day 7
# Procedure: FIGS. 4A-4N. Adaptoquin delivered post-injury reduces cell death and enhances functional recovery post injury in mice and rats. Adaptoquin's effects in mice are not associated with global shifts of iron out of the brain. FIG. 4A: Experimental design for schedule of delivery of adaptaquin post-ICH. 30 mg/kg was delivered post-injury and then daily for seven days during which behavioral analysis was done. Mice were sacrificed at day 7 for qPCR and Fluoro-jade staining. […] FIG. 4J: Protocol for adaptoquin treatment of rats with ICH. ICH is modeled by autologous blood infusion and not collagenase in these studies. Behavior is tracked by a single pellet reaching task out to 28 days, but the schedule of infusion is similar to what is used in mice-2 hrs post blood infusion and then daily out to seven days. Behavior is monitored before, from 9-11 days and from 25-28 days. […] FIG. 4L: Protocol for evaluating the total concentrations of iron and zinc in brain following ICH in vehicle and adaptoquin treated mice. FIGS. 4M, 4N: Pseudocolored sections of collagenase induced ICH in mice after 7 days. […] These studies are consistent with the notion that adaptoquin works by inhibiting a specific metalloenzyme rather than global movement of metal ions. To determine whether HIF PHD inhibition after ICH can improve behavioral outcomes, 30 mg/kg of adaptoquin was delivered to the peritoneum of mice two hours following the injection of collagenase into the striatum. An identical dose of adaptoquin (30 mg/kg) was given daily for seven days. […] These molecular deletion and pharmacological inhibition studies supported HIF PHDs as targets for therapy post ICH, but left unanswered the mechanism by which adaptoquin could abrogate neuronal death. A first prediction of the model was that adaptoquin enhances functional recovery without affecting total brain iron levels. Total iron levels were monitored in brain sections from vehicle- and adaptoquin-treated (30 mg/kg) mice seven days following ICH.
# [3] = test system: HIF-1 protein; experiment: HIF-1 protein stabilisation in primary neurons (Western blot); format: cell-based; conditions: FIG. 6H, 6I
# Source text: FIGS. 1A-1L: Structurally diverse HIF PHD inhibitors stabilize HIF-1 and abrogate toxicity induced by hemin, a byproduct of blood breakdown, in cortical neurons hippocampal neuroblasts and striatal neuroblasts (not shown). […] FIGS. 6A-6I. […] Expression of ATF4 was forced into primary neurons, which induces death of these neurons by MTT assay (FIG. 6D) or LIVE/DEAD staining, Green is live, Red is dead (FIG. 6E).
# [4] = test system: HIF PHDs; experiment: ODD-luciferase reporter mice, in vivo bioluminescence imaging and tissue lysates; conditions: for ODD-luciferase activity in brain: in vivo bioluminescence imaging, intraperitoneal; for ODD-luciferase activity in lysates from different brain regions: normalized to total protein, luminometer
# Source text: FIGS. 3A-3G. Validation of adaptoquin as a novel HIF PHD inhibitor. […] Under steady state conditions, activity of HIF PHD2 with its co-substrate 2-oxoglutarate involves two peaks that represent non-hydroxylated and hydroxylated peptide. The hydroxylated peptide disappears in the presence of HIF PHD2 inhibition by adaptoquin. […] The reporter contains the ODD domain of HIF-1 which confers HIF PHD regulated stability on it. It is expressed in all cells of the body, but is destabilized in the absence of HIF PHD inhibition and stabilized in its presence. Quantitative measurements confirm stability of the ODD-luc in brain, kidney and liver (FIGS. 3D and 3E.).
# To identify HIF PHD inhibitors suitable for testing in ICH, the experiment first sought to identify which of the known HIF PHD inhibitors could penetrate the blood brain barrier to inhibit HIF PHD activity in the CNS. To monitor HIF PHD activity dynamically, the experiment utilized mice that had previously been engineered to ubiquitously express the oxygen degradation domain (ODD) of HIF-1α fused to firefly luciferase. The ODD domain contains proline 402 and 564, which are hydroxylated by the HIF PHDs to degrade HIF-1 or the ODD-luciferase. Accordingly, these mice have been used previously to track HIF PHD activity in diverse organs in vivo using in vivo bioluminescence imaging.
# To verify that the changes in light in the brain reflect parenchymal changes in ODD-luciferase levels rather than increases in changes in skin or dural ODD-luciferase, ODD-luciferase activity was measured normalized to total protein in lysates from distinct brain regions using a luminometer.
smiles,measurement,setting,value
Oc1cccnc1NC(c1ccc(Cl)cc1)c1ccc2cccnc2c1O (stereo not drawn) [adaptoquin],Oxidative stress and ATF4 dependent induction of Trb3,[1]; 1 micromolar,abrogates oxidative stress and ATF4 dependent induction of Trb3
same,ATF4 occupancy at the promoter of Trib3,[1]; oxidative stress,abrogates oxidative stress induced ATF4 occupancy
same,"Expression of ATF4 dependent genes (Trib3, MTHFR2, SCL7A11, STC2)","[1]; protective doses (1 μM), quantitative PCR / microarray",significantly reduces expression of ATF4 dependent genes; also recorded: downregulation of ATF4 dependent genes
same,Corner task (spatial neglect),[2],significantly normalized
same,Corner task (spatial neglect),[2]; listed as Adaptoquin,corrects behavioral deficits
same,Tape removal task (sensory neglect),[2]; 30 mg/kg i.p.,significant improvement
same,Tape removal task (sensory neglect),"[2]; 30 mg/kg i.p., listed as Adaptoquin",corrects behavioral deficits
same,Hematoma size,"[2]; 30 mg/kg i.p., at 24 hours",no difference
same,Edema,"[2]; 30 mg/kg i.p., at three days",did decrease edema
same,"Neuronal degeneration (Fluoro-jade staining), striatum hematoma and perihematomal area",[2]; 30 mg/kg i.p.,reduction in the number of degenerating neurons
same,"Neuronal degeneration (Fluoro-jade staining), striatum hematoma and perihematomal area","[2]; 30 mg/kg i.p., listed as Apatoquin",significantly reduces neuronal degeneration
same,p21 expression,"[2]; 30 mg/kg post-ICH then daily for seven days, qPCR day 7",induced p21 expression
same,HIF-1 stabilisation relative to protective concentration,[3],stabilizes HIF-1 at concentrations higher than that required for full protection
same,Message levels of p21 waf1/cip1 in brain,[4]; adaptoquin 30 mg/kg,increased message levels of p21 waf1/cip1
same,ODD-luciferase activity in brain,[4]; adaptoquin 30 mg/kg,significantly increase ODD-luciferase levels and activity
same,ODD-luciferase activity in brain,"[4]; adaptoquin 30 mg/kg, listed as Adaptoquin",inhibits the HIF PHDs in brain in a dose dependent fashion
same,ODD-luciferase activity in lysates from different brain regions,[4],An increase in activity
same,ODD-luciferase activity in lysates from different brain regions,[4]; listed as Adaptoquin,dose dependent increases throughout the brain
